Values after ≈ are worked out from the molar mass of the structure shown.
Experiments:
Test in all cases: Antibacterial activity test (MIC)
Conditions in all cases: Mueller-Hinton Broth, 37° C., 20 to 24 hours
S. aureus 209PJC = format: cell-based
Method: (§1) Regarding compounds obtained in respective Working Examples, in order to investigate antibacterial activity, minimal inhibitory concentration (MIC) was determined according to a standard method of Japanese Society of Chemotherapy.
(§2) As a test bacterium, nine kinds of S. aureus 209PJC, MRSA 97-115, MRSA KM 97-53, MRSA KM97-108, VRE 49, E. coli NIHJ JC-2, P. aeruginosa PAO-1, P. aeruginosa No. 12, P. aeruginosa KM97-5 were used and, as a medium, Mueller-Hinton Broth (DIFCO) was used. One platinum loop of a test bacterium was inoculated into 20 ml of a medium, and static culture was carried out at 37° C. for 16 to 20 hours, and then each bacterium species was diluted with a sterilized physiological saline to 10^5/ml, which was used as a test bacterium solution.
(§3) Then, each compound was dissolved in methanol, subjected to ½ stepwise dilution with a medium to prepare a medium for measuring sensitivity, and each 2 ml was dispensed into a test tube. A compound concentration in a medium was adjusted to 100 μg/ml and its 2^n-fold (n=−10 to 1).
(§4) Numerical values in Tables represent MIC expressed in μg/ml unit.

P. aeruginosa PAO-1 = format: cell-based
Method: as §1, §2, §3, §4

E. coli NIHJ JC-2 = format: cell-based
Method: as §1, §2, §3, §4

MRSA 97-115 = format: cell-based, methicillin-resistant Staphylococcus aureus
Method: as §1, §2, §3, §4

`CCCCCCCCCCNC1=NC(C)(C)N=C(NCc2ccc(C(=O)O)cc2)N1.Cl` [compound 60] was tested, and the “minimal inhibitory concentration (MIC)” value (S. aureus 209PJC) was 3.1 µg/mL, the “minimal inhibitory concentration (MIC)” value (P. aeruginosa PAO-1) was >100 µg/mL and the “minimal inhibitory concentration (MIC)” value (E. coli NIHJ JC-2) was >100 µg/mL. For the same compound, the “minimal inhibitory concentration (MIC)” value (MRSA 97-115) was 6.3 µg/mL.

In the case of `CCCCCCCCCNC1=NC(C)(C)N(c2ccccc2)C(N)=N1.Cl` [compound 61], the “minimal inhibitory concentration (MIC)” value (S. aureus 209PJC) was 6.3 µg/mL, the “minimal inhibitory concentration (MIC)” value (P. aeruginosa PAO-1) was >100 µg/mL and the “minimal inhibitory concentration (MIC)” value (E. coli NIHJ JC-2) was >100 µg/mL. For the same compound, the “minimal inhibitory concentration (MIC)” value (MRSA 97-115) was 6.3 µg/mL.

For `CC(=O)O.CCCCCCCCCNC1=NC(C)(C)N=C(Nc2ccccc2)N1` [compound 62], the “minimal inhibitory concentration (MIC)” value (S. aureus 209PJC) was 0.8 µg/mL, the “minimal inhibitory concentration (MIC)” value (P. aeruginosa PAO-1) was 12.5 µg/mL and the “minimal inhibitory concentration (MIC)” value (E. coli NIHJ JC-2) was 12.5 µg/mL. For the same compound, the “minimal inhibitory concentration (MIC)” value (MRSA 97-115) was 0.8 µg/mL.

`CCCCCCCCNC1=NC(C)(C)N(c2cccc3ccccc23)C(N)=N1.Cl` [compound 63] was tested, and the “minimal inhibitory concentration (MIC)” value (S. aureus 209PJC) was 6.3 µg/mL, the “minimal inhibitory concentration (MIC)” value (P. aeruginosa PAO-1) was 100 µg/mL and the “minimal inhibitory concentration (MIC)” value (E. coli NIHJ JC-2) was 100 µg/mL. The “minimal inhibitory concentration (MIC)” value (MRSA 97-115) was 6.3 µg/mL.

In the case of `CCCCCCCCNC1=NC(C)(C)N=C(Nc2cccc3ccccc23)N1` [compound 64], the “minimal inhibitory concentration (MIC)” value (S. aureus 209PJC) was 0.8 µg/mL (≈ 2.11 µM), the “minimal inhibitory concentration (MIC)” value (P. aeruginosa PAO-1) was 25 µg/mL (≈ 65.9 µM) and the “minimal inhibitory concentration (MIC)” value (E. coli NIHJ JC-2) was 25 µg/mL (≈ 65.9 µM). The “minimal inhibitory concentration (MIC)” value (MRSA 97-115) was 0.8 µg/mL (≈ 2.11 µM).

For `CC(=O)O.CCCCCCCCNC1=NC(C)(C)N=C(NCCCCCCCC)N1` [compound 66], the “minimal inhibitory concentration (MIC)” value (S. aureus 209PJC) was 0.8 µg/mL, the “minimal inhibitory concentration (MIC)” value (P. aeruginosa PAO-1) was >100 µg/mL and the “minimal inhibitory concentration (MIC)” value (E. coli NIHJ JC-2) was 100 µg/mL. The “minimal inhibitory concentration (MIC)” value (MRSA 97-115) was 1.6 µg/mL.

With `CC(=O)O.CCCCCCCCNC1=NC(C)(C)N=C(NCCCCCCC)N1` [compound 67] the “minimal inhibitory concentration (MIC)” value (S. aureus 209PJC) was 0.8 µg/mL, the “minimal inhibitory concentration (MIC)” value (P. aeruginosa PAO-1) was 100 µg/mL and the “minimal inhibitory concentration (MIC)” value (E. coli NIHJ JC-2) was 100 µg/mL. For the same compound, the “minimal inhibitory concentration (MIC)” value (MRSA 97-115) was 1.6 µg/mL.

`CC(=O)O.CCCCCCCNC1=NC(C)(C)N=C(NCCCCCC)N1` [compound 70] was tested, and the “minimal inhibitory concentration (MIC)” value (S. aureus 209PJC) was 0.8 µg/mL, the “minimal inhibitory concentration (MIC)” value (P. aeruginosa PAO-1) was 25 µg/mL and the “minimal inhibitory concentration (MIC)” value (E. coli NIHJ JC-2) was 25 µg/mL. The “minimal inhibitory concentration (MIC)” value (MRSA 97-115) was 1.6 µg/mL.

For `CC(=O)O.CCCCCCCNC1=NC(C)(C)N=C(NC(C)(C)CC(C)(C)C)N1` [compound 71], the “minimal inhibitory concentration (MIC)” value (S. aureus 209PJC) was 0.8 µg/mL, the “minimal inhibitory concentration (MIC)” value (P. aeruginosa PAO-1) was 100 µg/mL and the “minimal inhibitory concentration (MIC)” value (E. coli NIHJ JC-2) was 100 µg/mL. The “minimal inhibitory concentration (MIC)” value (MRSA 97-115) was 0.8 µg/mL.

For `CC(=O)O.CCCCCCCCCCCCNC1=NC(C)(C)N=C(NCC)N1` [compound 73], the “minimal inhibitory concentration (MIC)” value (S. aureus 209PJC) was 0.8 µg/mL, the “minimal inhibitory concentration (MIC)” value (P. aeruginosa PAO-1) was 50 µg/mL and the “minimal inhibitory concentration (MIC)” value (E. coli NIHJ JC-2) was 12.5 µg/mL. The “minimal inhibitory concentration (MIC)” value (MRSA 97-115) was 1.6 µg/mL.

For `CC(=O)O.CCCCCCCCNC1=NCN=C(NCCCCCCCC)N1` [compound 74], the “minimal inhibitory concentration (MIC)” value (S. aureus 209PJC) was 0.8 µg/mL, the “minimal inhibitory concentration (MIC)” value (P. aeruginosa PAO-1) was 100 µg/mL and the “minimal inhibitory concentration (MIC)” value (E. coli NIHJ JC-2) was 12.5 µg/mL. The “minimal inhibitory concentration (MIC)” value (MRSA 97-115) was 0.8 µg/mL.

`CCCCCCCCCCCCNC1=NC(C)(C)N=C(N)N1.O=[N+]([O-])O` [compound 75] was tested, and the “minimal inhibitory concentration (MIC)” value (S. aureus 209PJC) was 0.8 µg/mL, the “minimal inhibitory concentration (MIC)” value (P. aeruginosa PAO-1) was 50 µg/mL and the “minimal inhibitory concentration (MIC)” value (E. coli NIHJ JC-2) was 25 µg/mL. The “minimal inhibitory concentration (MIC)” value (MRSA 97-115) was 3.1 µg/mL.

For `CCCCCCCCNC1=NC(C)(C)N=C(NCCCCCC)N1.O=C(O)C(O)C(O)C(O)C(O)CO` [compound 76], the “minimal inhibitory concentration (MIC)” value (S. aureus 209PJC) was 0.8 µg/mL, the “minimal inhibitory concentration (MIC)” value (P. aeruginosa PAO-1) was 50 µg/mL and the “minimal inhibitory concentration (MIC)” value (E. coli NIHJ JC-2) was 25 µg/mL. The “minimal inhibitory concentration (MIC)” value (MRSA 97-115) was 1.6 µg/mL.

`CC(=O)O.CCCCCCCCCCCCNC1=NC(C)(C)N=C(NCc2ccco2)N1` [compound 79] was tested, and the “minimal inhibitory concentration (MIC)” value (S. aureus 209PJC) was 0.8 µg/mL, the “minimal inhibitory concentration (MIC)” value (P. aeruginosa PAO-1) was 100 µg/mL and the “minimal inhibitory concentration (MIC)” value (E. coli NIHJ JC-2) was 50 µg/mL. For the same compound, the “minimal inhibitory concentration (MIC)” value (MRSA 97-115) was 1.6 µg/mL.

In the case of `CCCCCCCCCCCCNC1=NC(C)(C)N=C(NCc2ccc(S(N)(=O)=O)cc2)N1` [compound 80], the “minimal inhibitory concentration (MIC)” value (S. aureus 209PJC) was 0.4 µg/mL (≈ 0.836 µM), the “minimal inhibitory concentration (MIC)” value (P. aeruginosa PAO-1) was >100 µg/mL and the “minimal inhibitory concentration (MIC)” value (E. coli NIHJ JC-2) was >100 µg/mL. The “minimal inhibitory concentration (MIC)” value (MRSA 97-115) was 1.6 µg/mL (≈ 3.34 µM).

`CCCCCCCCNC1=NC(C)(C)N(c2cnc3ccccc3c2)C(N)=N1.Cl.Cl` [compound 81] was tested, and the “minimal inhibitory concentration (MIC)” value (S. aureus 209PJC) was 0.8 µg/mL, the “minimal inhibitory concentration (MIC)” value (P. aeruginosa PAO-1) was 50 µg/mL and the “minimal inhibitory concentration (MIC)” value (E. coli NIHJ JC-2) was 12.5 µg/mL. For the same compound, the “minimal inhibitory concentration (MIC)” value (MRSA 97-115) was 1.6 µg/mL.

Source: patent publication US7622469B2, “2,4-diamino-1,3,5-triazine derivatives” (Hamari Chemicals, Ltd., priority 2002, dated 2009)
